According to patent publication US12649712B2, “Indene compounds, pharmaceutical compositions thereof, and their therapeutic applications” (NucMito Pharmaceuticals Co. Ltd., priority 2020, dated 2026):

System: alpha-smooth muscle actin (α-SMA)
Assay: Inhibition of TGF-β induced expression of alpha-smooth muscle actin (α-SMA) in CFSC cells, western blot
Format: cell-based
Settings: compound at 10 μM, TGF-β (10 ng/mL), 24 hours, decrease in band intensity vs TGF-β only
Experimental: The ability of a compound to inhibit the TGF-β induced expression of alpha-smooth muscle actin (α-SMA) was evaluated in CCL4-treated fat storing (CFSC) cells. α-SMA is considered as a reliable marker of hepatic stellate cell activation and a key biomarker for liver fibrosis. See, e.g., Meng et al., Nat. Rev. Nephrol. 2016, 12, 325-38; Fabregat et al., FEBS J. 2016, 283, 2219-32.
CFSC cells maintained in a DMEM medium supplemented with 10% fetal bovine serum were seeded to 12-well culture dishes and grown to a confluence of 60-70% the next day. Culture was changed to a serum-free DMEM medium and treated with a compound at 10 μM in the presence of TGF-β (10 ng/mL). The cells were incubated for another 24 hours. All culture was maintained at 37° C. in 5% carbon dioxide.
A NP-40 lysate solution (50 mM Tris (pH 7.4), 150 mM NaCl, 1% NP-40) with EDTA free cocktail added was used to lyse the cells on ice for 30 min. The lysate was collected and centrifuged at 4° C. for 10 min at 12,000 rpm. The pellet was discarded and the supernatant was transferred to a new tube. Cell lysates were loaded with 5×loading buffer and boiled for 10 min, resolved by 10% SDS-polyacrylamide gel electrophoresis (SDS-PAGE), and transferred to PVDF membrane. The membrane was blocked with 5% skim milk in Tris-buffered saline and TWEEN® 20 (TBST; 10 mM Tris-HCl (pH 8.0), 150 mM NaCl, 0.1% TWEEN® 20) for 1 h at room temperature and then incubated with α-SMA and […] antibodies overnight at 4° C. After washing twice with TBST, the membrane was probed with a horseradish […] anti-immunoglobulin (1:5000 dilution) for 1 h at room temperature. After two subsequent rinses in TBST, immunoreactive products were reacted with ECL and visualized by a UVP CHEMSTUDIO™ imaging system. The western blotting bands are quantitated using an ImageJ software. The percentage of inhibition was obtained by calculating the percentage decrease in the band intensity compared to the one treated with TGF-β only.
The results are summarized in Table 1, wherein A represents a value no less of 90% inhibition, B represents a value less than 90% but no less than 80% inhibition, C represents a value less than 80% but no less than 70% inhibition, D represents a value less than 70% but no less than 50% inhibition, and E represents a value less than 50% with a compound at 10 μM.

Row | SMILES | inhibition at 10 µM [%]
1 | CC1=C(CC(=O)O)c2cc(F)ccc2/C1=C\c1ccc(Oc2ccccc2)cc1 [Compound A1, 2-[(1Z)-5-Fluoro-2-methyl-1-[(4-phenoxyphenyl)methylidene]-1H-inden-3-yl]acetic acid] | > 90
2 | COc1ccc(Oc2ccc(/C=C3/C(C)=C(CC(=O)O)c4cc(F)ccc43)cc2)cc1 [Compound A2, 2-[(1Z)-5-Fluoro-1-{[4-(4-methoxyphenoxy)phenyl]methylidene}-2-methyl-1H-inden-3-yl]acetic acid] | > 90
3 | CC1=C(CC(=O)O)c2cc(F)ccc2/C1=C\c1ccc(Oc2cccc(C(F)(F)F)c2)cc1Cl [Compound A3, 2-[(1Z)-1-({2-Chloro-4-[3-(trifluoromethyl)phenoxy]phenyl}methylidene)-5-fluoro-2-methyl-1H-inden-3-yl]acetic acid] | > 90
4 | CC1=C(CC(=O)O)c2cc(F)ccc2/C1=C\c1ccc(Oc2ccc(C)cc2)cc1 [Compound A4, 2-[(1Z)-5-Fluoro-2-methyl-1-{[4-(4-methylphenoxy)phenyl]methylidene}-1H-inden-3-yl]acetic acid] | > 90
5 | CC1=C(CC(=O)O)c2cc(F)ccc2/C1=C\c1ccc(Oc2ccc(C(C)C)cc2)cc1 [Compound A5, 2-[(1Z)-5-Fluoro-2-methyl-1-({4-[4-(propan-2-yl)phenoxy]phenyl}methylidene)-1H-inden-3-yl]acetic acid] | > 90
6 | CC1=C(CC(=O)O)c2cc(F)ccc2/C1=C\c1ccc(Oc2ccc(Br)cc2)cc1 [Compound A6, 2-[(1Z)-1-{[4-(4-Bromophenoxy)phenyl]methylidene}-5-fluoro-2-methyl-1H-inden-3-yl]acetic acid] | > 90
7 | CC1=C(CC(=O)O)c2cc(F)ccc2/C1=C\c1ccc(Oc2cccc(C)c2)cc1 [Compound A7, 2-[(1Z)-5-Fluoro-2-methyl-1-{[4-(3-methylphenoxy)phenyl]methylidene}-1H-inden-3-yl]acetic acid] | > 90
8 | CC1=C(CC(=O)O)c2cc(F)ccc2/C1=C\c1ccc(Oc2cccc(C(F)(F)F)c2)cc1 [Compound A9, (Z)-2-(5-Fluoro-2-methyl-1-(4-(3-(trifluoromethyl)phenoxy)benzylidene)-1H-inden-3-yl)acetic acid] | > 90
9 | CCc1ccc(Oc2ccc(/C=C3/C(C)=C(CC(=O)O)c4cc(F)ccc43)cc2)cc1 [Compound A10, 2-[(1Z)-1-{[4-(4-Ethylphenoxy)phenyl]methylidene}-5-fluoro-2-methyl-1H-inden-3-yl]acetic acid] | > 90
10 | COc1ccc(Oc2ccc(/C=C3/C(C)=C(CC(=O)O)c4cc(F)ccc43)c(Cl)c2)cc1 [Compound A12, 2-[(1Z)-1-{[2-Chloro-4-(4-methoxyphenoxy)phenyl]methylidene}-5-fluoro-2-methyl-1H-inden-3-yl]acetic acid] | > 90
11 | COc1cc(Oc2ccc(C(C)C)cc2)ccc1/C=C1/C(C)=C(CC(=O)O)c2cc(F)ccc21 [Compound A13, 2-[(1Z)-5-Fluoro-1-({2-methoxy-4-[4-(propan-2-yl)phenoxy]phenyl}-methylidene)-2-methyl-1H-inden-3-yl]acetic acid] | < 50
12 | CC1=C(CC(=O)O)c2cc(F)ccc2/C1=C\c1ccc(Oc2ccc3ccccc3c2)cc1 [Compound A14, 2-[(1Z)-5-Fluoro-2-methyl-1-{[4-(naphthalen-2-yloxy)phenyl]methylidene}-1H-inden-3-yl]acetic acid] | > 90
13 | CC1=C(CC(=O)O)c2cc(F)ccc2/C1=C\c1ccc(Oc2ccc(C(C)C)cc2)cc1Cl [Compound A15, 2-[(1Z)-1-({2-Chloro-4-[4-(propan-2-yl)phenoxy]phenyl}methylidene)-5-fluoro-2-methyl-1H-inden-3-yl]acetic acid] | 80 to 90
14 | CC1=C(CC(=O)O)c2cc(F)ccc2/C1=C\c1ccc(Oc2ccc(F)cc2F)cc1 [Compound A16, 2-[(1Z)-1-{[4-(2,4-Difluorophenoxy)phenyl]methylidene}-5-fluoro-2-methyl-1H-inden-3-yl]acetic acid] | > 90
15 | CC1=C(CC(=O)O)c2cc(F)ccc2/C1=C\c1ccc(Oc2ccc(F)cc2Br)cc1 [Compound A17, 2-[(1Z)-1-{[4-(2-bromo-4-fluorophenoxy)phenyl]methylidene}-5-fluoro-2-methyl-1H-inden-3-yl]acetic acid] | > 90
16 | CC1=C(CC(=O)O)c2cc(F)ccc2/C1=C\c1ccc(Oc2cc(F)c(F)cc2F)cc1 [Compound A18, 2-[(1Z)-5-Fluoro-2-methyl-1-{[4-(2,4,5-trifluorophenoxy)phenyl]methylidene}-1H-inden-3-yl]acetic acid] | 70 to 80
17 | CC1=C(CCC(=O)O)c2ccccc2/C1=C\c1ccc(Oc2ccc(F)cc2)cc1 [Compound A19, 3-[(1Z)-1-{[4-(4-Fluorophenoxy)phenyl]methylidene}-2-methyl-1H-inden-3-yl]propanoic acid] | > 90
18 | CC1=C(CC(=O)O)c2cc(F)ccc2/C1=C\c1ccc(Oc2ccc(F)nc2)cc1 [Compound A20, 2-[(1Z)-5-Fluoro-1-({4-[(6-fluoropyridin-3-yl)oxy]phenyl}methylidene)-2-methyl-1H-inden-3-yl]acetic acid] | < 50
19 | CC1=C(CC(=O)O)c2cc(F)ccc2/C1=C\c1ccc(Oc2cnc(F)c(C)c2)cc1 [Compound A21, 2-[(1Z)-5-Fluoro-1-({4-[(6-fluoro-5-methylpyridin-3-yl)oxy]phenyl}-methylidene)-2-methyl-1H-inden-3-yl]acetic acid] | 80 to 90
20 | CC1=C(CC(=O)O)c2cc(F)ccc2/C1=C\c1ccc(Oc2cccc3ncccc23)cc1 [Compound A22, (Z)-2-(5-Fluoro-2-methyl-1-(4-(quinolin-5-yloxy)benzylidene)-1H-inden-3-yl)acetic acid] | 50 to 70
21 | CC1=C(CC(=O)NO)c2cc(F)ccc2/C1=C\c1ccc(Oc2ccccc2)cc1 [Compound A23, 2-[(1Z)-5-Fluoro-2-methyl-1-[(4-phenoxyphenyl)methylidene]-1H-inden-3-yl]-N-hydroxyacetamide] | > 90
22 | CC1=C(CC(=O)NO)c2cc(F)ccc2/C1=C\c1ccc(Oc2ccc(F)cc2)cc1 [Compound A24, 2-[(1Z)-5-Fluoro-1-{[4-(4-fluorophenoxy)phenyl]methylidene}-2-methyl-1H-inden-3-yl]-N-hydroxyacetamide] | 80 to 90
23 | CC1=C(CC(N)=O)c2cc(F)ccc2/C1=C\c1ccc(Oc2ccc(F)cc2)cc1 [Compound A25, 2-[(1Z)-5-Fluoro-1-{[4-(4-fluorophenoxy)phenyl]methylidene}-2-methyl-1H-inden-3-yl]acetamide] | 70 to 80
24 | CNC(=O)CC1=C(C)/C(=C/c2ccc(Oc3ccc(F)cc3)cc2)c2ccc(F)cc21 [Compound A26, 2-[(1Z)-5-Fluoro-1-{[4-(4-fluorophenoxy)phenyl]methylidene}-2-methyl-1H-inden-3-yl]-N-methylacetamide] | 70 to 80
25 | CC1=C(CC(=O)NCCO)c2cc(F)ccc2/C1=C\c1ccc(Oc2ccc(F)cc2)cc1 [Compound A27, 2-[(1Z)-5-Fluoro-1-{[4-(4-fluorophenoxy)phenyl]methylidene}-2-methyl-1H-inden-3-yl]-N-(2-hydroxyethyl)acetamide] | 80 to 90
26 | CC1=C(CC(=O)O)c2cc(F)ccc2/C1=C\c1ccc(N(C)c2ccccc2)cc1 [Compound A29, 2-[(1Z)-5-Fluoro-2-methyl-1-({4-[methyl(phenyl)amino]phenyl}methylidene)-1H-inden-3-yl]acetic acid] | 70 to 80
27 | CC1=C(CC(=O)O)c2cc(F)ccc2/C1=C\c1ccc(N(Cc2ccccc2)c2ccc(F)cc2)cc1 [Compound A30, 2-[(1Z)-1-({4-[Benzyl(4-fluorophenyl)amino]phenyl}methylidene)-5-fluoro-2-methyl-1H-inden-3-yl]acetic acid] | 70 to 80
28 | CC1=C(CC(=O)O)c2cc(F)ccc2/C1=C\c1ccc(N(C)c2ccc(F)cc2)cc1 [Compound A31, 2-[(1Z)-5-Fluoro-1-({4-[(4-fluorophenyl)(methyl)amino]phenyl}methylidene)-2-methyl-1H-inden-3-yl]acetic acid] | > 90
29 | CCN(c1ccc(F)cc1)c1ccc(/C=C2/C(C)=C(CC(=O)O)c3cc(F)ccc32)cc1 [Compound A32, 2-[(1Z)-1-({4-[Ethyl(4-fluorophenyl)amino]phenyl}methylidene)-5-fluoro-2-methyl-1H-inden-3-yl]acetic acid] | > 90
